Measured values reported in ChEMBL document CHEMBL5120885, “Neopetrosins A-D and Haliclorensin D, Indole-C-Mannopyranosides and a Diamine Alkaloid Isolated from the South China Sea Marine Sponge Neopetrosia chaliniformis” (J Nat Prod, 2022).
Active and inactive are the calls of the source. No cut-off for these calls is given here.

How the values were obtained:
Type in all cases: functional, organism-based
Danio rerio [1] = species on record: Danio rerio; test: Hepatoprotective activity in isoniazid induced liver injury in transgenic zebrafish T3 (L- FABP:EGFP) model assessed as change in liver size at 50 uM incubated for 72 hrs by fluorescence microscopic analysis
Danio rerio [2] = species on record: Danio rerio; test: Hepatoprotective activity in ethanol induced liver injury in transgenic zebrafish T3 (L- FABP:EGFP) model assessed as change in liver size at 50 uM incubated for 72 hrs by fluorescence microscopic analysis
Danio rerio [3] = species on record: Danio rerio; test: Hepatoprotective activity in isoniazid induced liver injury in transgenic zebrafish T3 (L- FABP:EGFP) model assessed as change in liver size at 20 uM incubated for 72 hrs by fluorescence microscopic analysis
Danio rerio [4] = species on record: Danio rerio; test: Hepatoprotective activity in ethanol induced liver injury in transgenic zebrafish T3 (L- FABP:EGFP) model assessed as change in liver size at 20 uM incubated for 72 hrs by fluorescence microscopic analysis

SMILES	Activity (Danio rerio [1])	Activity (Danio rerio [2])	Activity (Danio rerio [3])	Activity (Danio rerio [4])
C[S+](CC[C@H](N)C(=O)[O-])C[C@H]1O[C@@H](n2cnc3c(N)ncnc32)[C@H](O)[C@@H]1O (stereo partly drawn)	Active	Active	–	–
NCC(=O)c1c([C@H]2O[C@H](CO)[C@@H](O)[C@H](O)[C@@H]2O)[nH]c2ccccc12	–	–	Active	Active
C[C@@H]1NC(=O)[C@H](Cc2c([C@H]3O[C@H](CO)[C@@H](O)[C@H](O)[C@@H]3O)[nH]c3ccccc23)NC1=O	–	–	Active	Active
O=C1O[C@H]2[C@@H](O)[C@H](O)[C@@H](CO)O[C@@H]2c2[nH]c3ccccc3c21	–	–	Active	Active
